The source of these data is article PMC10629583, “Specific inhibition of an anticancer target, polo-like kinase 1, by allosterically dismantling its mechanism of substrate recognition” (Proceedings of the National Academy of Sciences of the …, 2023).

Some results are limits rather than exact numbers.

What is called Ki is a dissociation constant, usually derived from enzyme kinetics or from competition with a known ligand.

What all share (experiment): PDSP off-target binding screen
Common to all, as to settings: for inhibition at 10 µM: read-out: Primary screen AVE(%inhib)±SD; for Ki: read-out: Secondary screen Ki

One experiment has as its target MOR (Homo sapiens, UniProt P35372). An excerpt:
(§1) PDSP no. Compound Interactions (Ki, µM)
(§2) 60477 Allopole-A None observed.
(§3) trigger a secondary screen at that receptor.

For another experiment, the target named is Sigma 1 (Homo sapiens, UniProt Q99720).
Source text: as §1, §2, §3

The target of a further experiment is T1, M2 (Homo sapiens, UniProt P08172).
T1 sequence (P08172 1-466): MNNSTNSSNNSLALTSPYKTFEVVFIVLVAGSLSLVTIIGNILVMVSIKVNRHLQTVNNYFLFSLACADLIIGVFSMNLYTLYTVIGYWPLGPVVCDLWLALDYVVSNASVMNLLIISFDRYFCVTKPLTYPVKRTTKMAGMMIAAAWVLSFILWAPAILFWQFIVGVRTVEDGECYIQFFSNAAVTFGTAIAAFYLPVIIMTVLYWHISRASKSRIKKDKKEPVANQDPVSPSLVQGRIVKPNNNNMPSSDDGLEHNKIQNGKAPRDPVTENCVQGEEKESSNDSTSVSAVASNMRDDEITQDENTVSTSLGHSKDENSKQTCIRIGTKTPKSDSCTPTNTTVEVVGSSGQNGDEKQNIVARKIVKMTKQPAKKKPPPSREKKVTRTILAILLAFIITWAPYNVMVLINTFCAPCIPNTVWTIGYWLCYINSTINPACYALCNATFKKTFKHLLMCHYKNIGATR
Source text: as §1, §2, §3

A further experiment deals with T2, D4 (Homo sapiens, UniProt P21917).
T2 sequence (P21917 1-419): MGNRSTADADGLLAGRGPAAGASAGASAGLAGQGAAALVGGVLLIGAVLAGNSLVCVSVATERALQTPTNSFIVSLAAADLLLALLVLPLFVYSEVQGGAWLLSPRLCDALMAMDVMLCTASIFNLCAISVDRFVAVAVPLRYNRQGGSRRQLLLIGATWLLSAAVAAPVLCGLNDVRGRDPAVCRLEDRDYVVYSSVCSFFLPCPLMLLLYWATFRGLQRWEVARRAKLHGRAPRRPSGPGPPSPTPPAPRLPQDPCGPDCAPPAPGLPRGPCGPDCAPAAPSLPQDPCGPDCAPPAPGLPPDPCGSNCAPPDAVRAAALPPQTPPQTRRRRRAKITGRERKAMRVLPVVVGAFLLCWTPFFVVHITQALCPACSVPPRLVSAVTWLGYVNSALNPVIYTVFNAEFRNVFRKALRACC
Source text: as §1, §2, §3

The target of the next experiment is T3, M4 (Homo sapiens, UniProt P08173).
T3 sequence (P08173 1-479): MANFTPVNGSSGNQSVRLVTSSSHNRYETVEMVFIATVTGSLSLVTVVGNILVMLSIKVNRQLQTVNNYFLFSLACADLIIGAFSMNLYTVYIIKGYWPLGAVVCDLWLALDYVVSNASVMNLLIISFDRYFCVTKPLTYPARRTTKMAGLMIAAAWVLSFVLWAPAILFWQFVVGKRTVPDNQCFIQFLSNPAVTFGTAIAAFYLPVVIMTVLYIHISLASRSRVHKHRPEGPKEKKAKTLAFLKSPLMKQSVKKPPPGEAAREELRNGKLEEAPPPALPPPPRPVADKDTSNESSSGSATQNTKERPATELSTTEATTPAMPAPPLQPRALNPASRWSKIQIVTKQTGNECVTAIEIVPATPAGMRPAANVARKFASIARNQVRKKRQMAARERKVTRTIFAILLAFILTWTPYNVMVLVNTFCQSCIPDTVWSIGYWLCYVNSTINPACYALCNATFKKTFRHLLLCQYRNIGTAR
Source text: as §1, §2, §3

For a further experiment, the target named is H2 (Homo sapiens, UniProt P25021).
Source text: as §1, §2, §3

For another experiment, the target named is T4, 5-HT6 (Homo sapiens, UniProt P50406).
T4 construct: NIMH Psychoactive Drug Screening Program (UNC)
Source text: as §1, §2, §3

In another experiment the target is T5, 5-HT1A (Homo sapiens, UniProt P08908).
T5 construct: NIMH Psychoactive Drug Screening Program (UNC)
T5 sequence (P08908 1-422): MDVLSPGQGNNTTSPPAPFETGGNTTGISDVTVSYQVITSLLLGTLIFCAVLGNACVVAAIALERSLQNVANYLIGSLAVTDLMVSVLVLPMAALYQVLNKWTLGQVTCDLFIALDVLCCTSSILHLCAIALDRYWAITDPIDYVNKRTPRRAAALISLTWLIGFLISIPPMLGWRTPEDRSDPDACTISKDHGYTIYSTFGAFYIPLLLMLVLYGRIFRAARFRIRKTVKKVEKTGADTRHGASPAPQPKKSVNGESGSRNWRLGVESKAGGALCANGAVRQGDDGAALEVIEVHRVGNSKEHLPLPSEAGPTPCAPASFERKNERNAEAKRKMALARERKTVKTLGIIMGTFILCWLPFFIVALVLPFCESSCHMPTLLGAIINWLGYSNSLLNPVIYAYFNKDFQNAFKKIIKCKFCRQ
Source text: as §1, §2, §3

A further experiment concerns the target T6, M5 (Homo sapiens, UniProt P08912).
T6 sequence (P08912 1-532): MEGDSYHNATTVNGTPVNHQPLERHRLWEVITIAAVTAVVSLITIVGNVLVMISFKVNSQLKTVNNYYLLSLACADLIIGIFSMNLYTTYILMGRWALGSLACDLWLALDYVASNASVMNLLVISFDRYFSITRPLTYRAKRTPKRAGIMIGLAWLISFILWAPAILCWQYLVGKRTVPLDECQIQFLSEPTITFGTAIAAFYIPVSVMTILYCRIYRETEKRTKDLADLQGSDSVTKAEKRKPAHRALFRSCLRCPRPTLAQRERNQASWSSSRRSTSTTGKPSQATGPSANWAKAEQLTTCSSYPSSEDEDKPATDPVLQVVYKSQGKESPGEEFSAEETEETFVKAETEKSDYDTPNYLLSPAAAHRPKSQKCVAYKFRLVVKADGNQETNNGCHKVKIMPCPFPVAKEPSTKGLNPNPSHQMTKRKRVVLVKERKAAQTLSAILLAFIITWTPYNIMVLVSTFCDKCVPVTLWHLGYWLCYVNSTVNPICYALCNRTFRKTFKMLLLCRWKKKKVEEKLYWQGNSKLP
Source text: as §1, §2, §3

Sequence of H2 (P25021 whole entry): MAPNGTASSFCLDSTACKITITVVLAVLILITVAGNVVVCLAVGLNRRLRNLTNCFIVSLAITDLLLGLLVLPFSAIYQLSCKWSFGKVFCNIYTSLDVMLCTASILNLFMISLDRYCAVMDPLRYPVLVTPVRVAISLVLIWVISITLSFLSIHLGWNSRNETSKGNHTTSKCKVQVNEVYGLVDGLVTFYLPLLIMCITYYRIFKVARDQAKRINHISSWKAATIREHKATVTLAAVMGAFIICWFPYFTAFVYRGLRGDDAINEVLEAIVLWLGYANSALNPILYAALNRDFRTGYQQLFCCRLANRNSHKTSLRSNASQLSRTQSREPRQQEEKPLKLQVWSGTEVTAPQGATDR
Sequence of MOR (P35372 whole entry): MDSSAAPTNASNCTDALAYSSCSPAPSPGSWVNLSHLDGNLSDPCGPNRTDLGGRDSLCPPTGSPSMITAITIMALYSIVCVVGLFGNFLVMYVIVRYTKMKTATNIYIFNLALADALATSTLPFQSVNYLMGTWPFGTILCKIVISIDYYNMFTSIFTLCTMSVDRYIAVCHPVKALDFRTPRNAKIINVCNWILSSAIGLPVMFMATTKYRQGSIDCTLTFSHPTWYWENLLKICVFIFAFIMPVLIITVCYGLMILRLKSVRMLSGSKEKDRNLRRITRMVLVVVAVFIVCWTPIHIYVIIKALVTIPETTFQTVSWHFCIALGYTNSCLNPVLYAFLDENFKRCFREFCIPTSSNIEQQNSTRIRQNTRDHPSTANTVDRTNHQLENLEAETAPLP
Sequence of Sigma 1 (Q99720 whole entry): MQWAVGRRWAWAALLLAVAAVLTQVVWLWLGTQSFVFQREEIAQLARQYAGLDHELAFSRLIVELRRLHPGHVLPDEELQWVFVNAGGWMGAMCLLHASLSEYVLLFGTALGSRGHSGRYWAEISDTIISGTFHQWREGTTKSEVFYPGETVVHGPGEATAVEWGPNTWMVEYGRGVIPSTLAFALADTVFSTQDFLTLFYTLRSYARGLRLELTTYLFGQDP
T4 sequence (P50406 whole entry): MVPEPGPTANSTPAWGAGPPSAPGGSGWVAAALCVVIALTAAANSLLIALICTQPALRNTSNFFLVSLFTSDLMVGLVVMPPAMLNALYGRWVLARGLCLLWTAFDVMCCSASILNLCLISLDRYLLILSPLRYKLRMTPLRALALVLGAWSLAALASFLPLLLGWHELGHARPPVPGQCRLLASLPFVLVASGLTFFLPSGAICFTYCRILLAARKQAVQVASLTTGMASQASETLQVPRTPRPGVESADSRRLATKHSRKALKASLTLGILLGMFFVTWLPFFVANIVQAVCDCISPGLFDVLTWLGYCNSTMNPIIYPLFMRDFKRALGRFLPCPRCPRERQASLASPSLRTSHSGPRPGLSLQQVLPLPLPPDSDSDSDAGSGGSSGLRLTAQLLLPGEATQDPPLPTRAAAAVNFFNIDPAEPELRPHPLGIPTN

`O=c1c2sc(Cl)cc2n2c(=S)[nH]nc2n1CC1CC1` [Allopole-A]: the inhibition at 10 µM on MOR was 30.8 ± 47.5%; at Sigma 1, 2 ± 21.4%; at M2, 21.1 ± 19.7%; at D4, -24.3 ± 4.4%; on M4, -8.8 ± 4.8%; on H2 it was -27.4 ± 17.1%. For the same molecule, the inhibition at 10 µM on 5-HT6 was -5 ± 11.7%; at 5-HT1A it was -20 ± 27.4%; on M5, 130 ± 3%. Also, the Ki on MOR, on Sigma 1, at M2, on D4, on M4 and on H2 was above 10 µM in each case. For the same molecule, the Ki at 5-HT6, on 5-HT1A and on M5 was above 10 µM each time.
`Cn1cnc([N+](=O)[O-])c1Sc1nnc2n(CC3CC3)c(=O)c3sc(Cl)cc3n12` [Allopole]: the inhibition at 10 µM at MOR is 40.6 ± 51%; on Sigma 1 it was 41.8 ± 11.9%; on M2 it was 9.3 ± 19.3%; at D4, 12.6 ± 4.9%; at M4 it was -8.7 ± 9.5%; on H2 it was -16.4 ± 21.5%. Further, the inhibition at 10 µM on 5-HT6 is 21.9 ± 15.6%; on 5-HT1A, -12.8 ± 19.7%; at M5, 95 ± 7.4%. Further, the Ki on MOR, at Sigma 1, on M2, on D4, on M4 and at H2 was above 10 µM throughout. In addition, the Ki at 5-HT6, on 5-HT1A and at M5 was above 10 µM in each case.
